Values quoted from earlier work in patent US20060243184A1, “Use of waste nitrogen from air separation units for blanketing cargo and ballast tanks” (Chevron U.S.A. Inc., priority 2003, published 2006).

Settings: @ 20° C.

Row | Structure (SMILES) | Water Solubility
1 | CS [Methylmercaptan] | 2.4%
2 | CCCS [Propylmercaptan] | Low
3 | CCS [Ethylmercaptan] | 1.3%
